In patent US12358932B2, “Chemical compounds” (BORAH, INC., priority 2019, dated 2025):

Target: T1, Recombinant human PDE4B (Homo sapiens, UniProt Q07343)
T1 construct: aa 305-end; GST (N); made in house; host or cells: Sf9 insect cells (baculovirus)
Test: PDE4B Phosphodiesterase Assay
Assay type: biochemical
Design: key to Activity Note: PDE4: The (+) symbols identify a compound of the present disclosure with the noted target activity; +*: The (*) symbols indicate preferential activity, where the greater number identifies the most preferred compounds; +**: The (*) symbols indicate preferential activity, where the greater number identifies the most preferred compounds; +***: The (*) symbols indicate preferential activity, where the greater number identifies the most preferred compounds
Details: compound list; + = noted target activity
Description: The assay is based on the fluorescence polarization measuring AMP/GMP production as a result of the enzyme activity by displacement of Tracer binding to the AMP/GMP antibody. • Reaction Buffer: 10 mM Tris-HCl, pH 7.5, 5 mM MgCl2, 0.01% Brij 35, 1 mM DTT and 1% DMSO. • Enzyme: Recombinant human PDE4B (Gene Accession #NM_002600; aa 305-end) was expressed by baculovirus in Sf9 insect cells using an N-terminal GST tag. Mw=78 kDa. • Substrate: 1 μM cAMP • Detection: Transcreener® AMP2/GMP2 Antibody AMP2/GMP2 AlexaFluor 633 Tracer Reaction Procedure: • 1. Prepared indicated enzyme and substrate in freshly prepared Reaction Buffer • 2. Delivered enzyme solution into the reaction well • 3. Delivered compounds in 100% DMSO into the enzyme solution by Acoustic technology (Echo550; nanoliter range), incubated for 10 min at room temperature • 4. Delivered substrate solution into the reaction well to initiate the reaction • 5. Incubated for 1 h at room temperature • 6. Added detection mixture (Tracer and antibody in the stop buffer) to stop the reaction and incubated for 90 min with gentle mixing. The fluorescence polarization was measured at Ex/Em 620/688.
Data Analysis: The FP signals were converted into nM product based on an AMP/GMP standard curve and calculated % Enzyme activity relative to DMSO control by Excel. The curve fit was performed using GraphPad prism.

T1 sequence (Q07343 305-736 limits assumed): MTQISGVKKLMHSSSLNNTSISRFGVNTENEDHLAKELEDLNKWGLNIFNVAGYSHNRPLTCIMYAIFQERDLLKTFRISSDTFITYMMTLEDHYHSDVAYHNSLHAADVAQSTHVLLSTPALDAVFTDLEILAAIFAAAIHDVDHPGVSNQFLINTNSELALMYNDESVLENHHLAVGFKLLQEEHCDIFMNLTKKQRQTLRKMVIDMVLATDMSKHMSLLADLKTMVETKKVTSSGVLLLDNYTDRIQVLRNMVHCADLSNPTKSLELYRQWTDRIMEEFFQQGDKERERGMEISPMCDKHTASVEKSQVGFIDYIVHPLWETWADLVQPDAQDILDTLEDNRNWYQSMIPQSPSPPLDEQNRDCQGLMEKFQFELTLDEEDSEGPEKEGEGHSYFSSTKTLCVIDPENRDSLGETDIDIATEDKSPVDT

Activity Note: PDE4	SMILES
+	CCC(C)Nc1nc(Nc2ccc3c(c2)COB3O)ncc1Cl (centres unmarked) [5-((4-(sec-butylamino)-5-chloropyrimidin-2-yl)amino)benzo[c][1,2]oxaborol-1(3H)-ol]
+	CCC(C)Nc1nc(Nc2ccc3c(c2)COB3O)ncc1F (centres unmarked) [5-((4-(sec-butylamino)-5-fluoropyrimidin-2-yl)amino)benzo[c][1,2]oxaborol-1(3H)-ol]
+	CCC(C)Nc1nc(Nc2ccc3c(c2)COB3O)ncc1C (centres unmarked) [5-((4-(sec-butylamino)-5-methylpyrimidin-2-yl)amino)benzo[c][1,2]oxaborol-1(3H)-ol]
+	CCC(CO)Nc1nc(Nc2ccc3c(c2)COB3O)ncc1Cl (centres unmarked) [5-((5-chloro-4-((1-hydroxybutan-2-yl)amino)pyrimidin-2-yl)amino)benzo[c][1,2]oxaborol-1(3H)-ol]
+	OB1OCc2cc(Nc3ncc(Cl)c(NCCC4CC4)n3)ccc21 [5-((5-chloro-4-((2-cyclopropylethyl)amino)pyrimidin-2-yl)amino)benzo[c][1,2]oxaborol-1(3H)-ol]
+	OB1OCc2cc(Nc3ncc(Cl)c(NC4CCCCC4)n3)ccc21 [5-((5-chloro-4-(cyclohexylamino)pyrimidin-2-yl)amino)benzo[c][1,2]oxaborol-1(3H)-ol]
+	OB1OCc2cc(Nc3ncc(Cl)c(NC4CCCC4)n3)ccc21 [5-((5-chloro-4-(cyclopentylamino)pyrimidin-2-yl)amino)benzo[c][1,2]oxaborol-1(3H)-ol]
+	CCCC(CC)Nc1nc(Nc2ccc3c(c2)COB3O)ncc1Cl (centres unmarked) [5-((5-chloro-4-(hexan-3-ylamino)pyrimidin-2-yl)amino)benzo[c][1,2]oxaborol-1(3H)-ol]
+	CS(=O)(=O)c1nc(Nc2ccc3c(c2)COB3O)ncc1Cl [5-((5-chloro-4-(methylsulfonyl)pyrimidin-2-yl)amino)benzo[c][1,2]oxaborol-1(3H)-ol]
+	CSc1nc(Nc2ccc3c(c2)COB3O)ncc1Cl [5-((5-chloro-4-(methylthio)pyrimidin-2-yl)amino)benzo[c][1,2]oxaborol-1(3H)-ol]
+	CCC(CC)Nc1nc(Nc2ccc3c(c2)COB3O)ncc1Cl [5-((5-chloro-4-(pentan-3-ylamino)pyrimidin-2-yl)amino)benzo[c][1,2]oxaborol-1(3H)-ol]
+	CCCNc1nc(Nc2ccc3c(c2)COB3O)ncc1Cl [5-((5-chloro-4-(propylamino)pyrimidin-2-yl)amino)benzo[c][1,2]oxaborol-1(3H)-ol]
+	CCCNc1nc(Nc2ccc3c(c2)COB3O)ncc1F [5-((5-fluoro-4-(propylamino)pyrimidin-2-yl)amino)benzo[c][1,2]oxaborol-1(3H)-ol]
+	CCC(CC)Oc1nc(Nc2ccc3c(c2)COB3O)ncc1C [5-((5-methyl-4-(pentan-3-yloxy)pyrimidin-2-yl)amino)benzo[c][1,2]oxaborol-1(3H)-ol]
+	CCC(CC)Sc1nc(Nc2ccc3c(c2)COB3O)ncc1C [5-((5-methyl-4-(pentan-3-ylthio)pyrimidin-2-yl)amino)benzo[c][1,2]oxaborol-1(3H)-ol]
+	CCCNc1nc(Nc2ccc3c(c2)COB3O)ncc1C [5-((5-methyl-4-(propylamino)pyrimidin-2-yl)amino)benzo[c][1,2]oxaborol-1(3H)-ol]

Further lines, the compound ahead of its results:

SMILES	Activity Note: PDE4
CCCC(CC)Nc1nc(Nc2ccc3c(c2)COB3O)ncc1C (centres unmarked) [5-((4-(hexan-3-ylamino)-5-methylpyrimidin-2-yl)amino)benzo[c][1,2]oxaborol-1(3H)-ol]	+
CCC(CC)Nc1nc(Nc2ccc3c(c2)COB3O)ncc1C(F)(F)F [5-((4-(pentan-3-ylamino)-5-(trifluoromethyl)pyrimidin-2-yl)amino)benzo[c][1,2]oxaborol-1(3H)-ol]	+
CCC(CC)Nc1ccnc(Nc2ccc3c(c2)COB3O)n1 [5-((4-(pentan-3-ylamino)pyrimidin-2-yl)amino)benzo[c][1,2]oxaborol-1(3H)-ol]	+
CCCNc1nc(Nc2ccc3c(c2)COB3O)ncc1C(F)(F)F [5-((4-(propylamino)-5-(trifluoromethyl)pyrimidin-2-yl)amino)benzo[c][1,2]oxaborol-1(3H)-ol]	+
CCC(C)Nc1nc(Nc2ccc3c(c2)COB3O)ncc1C(F)(F)F (centres unmarked) [5-((4-(sec-butylamino)-5-(trifluoromethyl)pyrimidin-2-yl)amino)benzo[c][1,2]oxaborol-1(3H)-ol]	+
OB1OCc2cc(Nc3ncc(Cl)c(NC4CCCC4)n3)cc(F)c21 [5-((5-chloro-4-(cyclopentylamino)pyrimidin-2-yl)amino)-7-fluorobenzo[c][1,2]oxaborol-1(3H)-ol]	+
CCCC(CC)Nc1nc(Nc2ccc3c(c2)COB3O)ncc1F (centres unmarked) [5-((5-fluoro-4-(hexan-3-ylamino)pyrimidin-2-yl)amino)benzo[c][1,2]oxaborol-1(3H)-ol]	+
CCC(CC)Nc1nc(Nc2ccc3c(c2)COB3O)ncc1F [5-((5-fluoro-4-(pentan-3-ylamino)pyrimidin-2-yl)amino)benzo[c][1,2]oxaborol-1(3H)-ol]	+
Cc1cnc(Nc2ccc3c(c2)COB3O)nc1NC(C)c1ccccc1 (centres unmarked) [5-((5-methyl-4-((1-phenylethyl)amino)pyrimidin-2-yl)amino)benzo[c][1,2]oxaborol-1(3H)-ol]	+
CCC(Nc1nc(Nc2ccc3c(c2)COB3O)ncc1C)c1ccccc1 (centres unmarked) [5-((5-methyl-4-((1-phenylpropyl)amino)pyrimidin-2-yl)amino)benzo[c][1,2]oxaborol-1(3H)-ol]	+
Cc1cnc(Nc2ccc3c(c2)COB3O)nc1Nc1ccccc1OC(F)(F)F [5-((5-methyl-4-((2-(trifluoromethoxy)phenyl)amino)pyrimidin-2-yl)amino)benzo[c][1,2]oxaborol-1(3H)-ol]	+
Cc1cnc(Nc2ccc3c(c2)COB3O)nc1Nc1ccccc1C(F)(F)F [5-((5-methyl-4-((2-(trifluoromethyl)phenyl)amino)pyrimidin-2-yl)amino)benzo[c][1,2]oxaborol-1(3H)-ol]	+
Cc1cnc(Nc2ccc3c(c2)COB3O)nc1NC1CCCC(C)C1 (centres unmarked) [5-((5-methyl-4-((3-methylcyclohexyl)amino)pyrimidin-2-yl)amino)benzo[c][1,2]oxaborol-1(3H)-ol]	+
Cc1cnc(Nc2ccc3c(c2)COB3O)nc1NC1CCC(C)CC1 (centres unmarked) [5-((5-methyl-4-((4-methylcyclohexyl)amino)pyrimidin-2-yl)amino)benzo[c][1,2]oxaborol-1(3H)-ol]	+
Cc1ccccc1Nc1nc(Nc2ccc3c(c2)COB3O)ncc1C [5-((5-methyl-4-(o-tolylamino)pyrimidin-2-yl)amino)benzo[c][1,2]oxaborol-1(3H)-ol]	+
CCC(CC)Nc1nc(Nc2ccc3c(c2)COB3O)ncc1C [5-((5-methyl-4-(pentan-3-ylamino)pyrimidin-2-yl)amino)benzo[c][1,2]oxaborol-1(3H)-ol]	+
Cc1cnc(Nc2ccc3c(c2)COB3O)nc1Nc1ccccc1 [5-((5-methyl-4-(phenylamino)pyrimidin-2-yl)amino)benzo[c][1,2]oxaborol-1(3H)-ol]	+
CCC(CC)Nc1nc(Nc2cc(F)c3c(c2)COB3O)ncc1C(F)(F)F [7-fluoro-5-((4-(pentan-3-ylamino)-5-(trifluoromethyl)pyrimidin-2-yl)amino)benzo[c][1,2]oxaborol-1(3H)-ol]	+
CCC(CC)Nc1nc(Nc2cc(F)c3c(c2)COB3O)ncc1C [7-fluoro-5-((5-methyl-4-(pentan-3-ylamino)pyrimidin-2-yl)amino)benzo[c][1,2]oxaborol-1(3H)-ol]	+
Cc1cnc(Nc2cc(F)c3c(c2)COB3O)nc1Nc1ccccc1 [7-fluoro-5-((5-methyl-4-(phenylamino)pyrimidin-2-yl)amino)benzo[c][1,2]oxaborol-1(3H)-ol]	+
Cc1cnc(N(C)c2ccc3c(c2)COB3O)nc1OC1CCCCC1 [drawing 151, 5-((4-(cyclohexyloxy)-5-methylpyrimidin-2-yl)(methyl)amino)benzo[c][1,2]oxaborol-1(3H)-ol]	+
CCOC(=O)c1cccc(Nc2nc(Nc3ccc4c(c3)COB4O)ncc2C)c1 [ethyl 3-((2-((1-hydroxy-1,3-dihydrobenzo[c][1,2]oxaborol-5-yl)amino)-5-methylpyrimidin-4-yl)amino)benzoate]	+
